From patent publication US11589586B2, “Pesticidal and parasiticidal pyrazole-isoxazoline compounds” (BOEHRINGER INGELHEIM ANIMAL HEALTH USA INC., priority 2017, dated 2023) come the findings set out here.

As usually defined, the LC50 is the concentration lethal to half of the exposed cells or organisms. Lower therefore signals a more lethal substance. In general, EC50 refers to the midpoint of the concentration-response curve.

Test [1] concerns adult Ctenocephalides felis. Nature of the test: Efficacy against fleas when ingested (treated bovine blood membrane feeding). The format is in vivo. Conditions: adult Ctenocephalides felis fed on treated bovine blood, 72 hour assessment, compared with untreated controls. From the text: Method B: Efficacy of Compounds Against Fleas when Ingested
A cylindrical test container was filled with 10 adult Ctenocephalides felis. A cylindrical well was closed on one end with a self-sealing flexible film and placed on top of the test container in such a position that the fleas could pierce the film and feed on the contents of the cylinder. The test compound solution was then pipetted into bovine blood and added to the well. The container part with the Ctenocephalides felis was held at 20-22° C. and 40-60% relative humidity while the well part containing the treated blood was held at 37° C. and 40-60% relative humidity. Assessment was performed at 72 hours after application in comparison with untreated controls.

The test system of test [2] is A. aegypti L1 larvae. Nature of the test: Efficacy against A. aegypti mosquitos (L1 larvae motility, dose response). Conditions: Aedes aegypti; ten A. aegypti L1 larvae, diluted LB media, 25° C., 48h; read-out: EC50 (motility of larvae compared to DMSO control wells). Format: in vivo. As to the method: Method A: Efficacy of Compounds Against A. aegypti Mosquitos Compounds were formulated in 100% DMSO are added to microtiter plates containing 180 μl of diluted LB media (Luria-Bertani media is a combination of tryptone, salt and yeast extract). Ten A. aegypti L1 larvae are added and the plates are incubated at 25° C. for 48h. The efficacy of a compound is determined based on the motility of the larvae as compared to average motility of control wells containing DMSO only. A dose response assay was conducted to determine an EC50 value.

In test [1], `Cc1cc(C2=NOC(c3cc(C(F)(F)F)nn3C)(C(F)(F)F)C2)ccc1C(=O)NCC(=O)NCC(F)(F)F` (centres unmarked) [Compound 2-1, 2-[(2-Methyl-4-[5-[1-methyl-3-(trifluoromethyl)-1H-pyrazol-5-yl]-5-(trifluoromethyl)-4,5-dihydro-1,2-oxazol-3-yl]phenyl)formamido]-N-(2,2,2-trifluoroethyl)acetamide] gave an LC50 of less than 20 µM. In test [2], the EC50 was less than 10 µM.

In test [1], `Cn1nc(C(F)(F)F)cc1C1(C(F)(F)F)CC(c2ccc(C(=O)NCC(=O)NCC(F)(F)F)c3ccccc23)=NO1` (centres unmarked) [Compound 2-2, 2-[(4-[5-[1-methyl-3-(trifluoromethyl)-1H-pyrazol-5-yl]-5-(trifluoromethyl)-4,5-dihydro-1,2-oxazol-3-yl]naphthalen-1-yl)formamido]-N-(2,2,2-trifluoroethyl)acetamide] showed an LC50 of less than 20 µM. The EC50 in test [2] was less than 10 µM. Regarding `Cn1nc(C(F)(F)F)cc1C1(C(F)(F)F)CC(c2ccc3c(c2)COC32CN(C(=O)CS(C)(=O)=O)C2)=NO1` (centres unmarked) [Compound 2-3, 1-(5′-(5-(1-methyl-3-(trifluoromethyl)-1H-pyrazol-5-yl)-5-(trifluoromethyl)-4,5-dihydroisoxazol-3-yl)-3′H-spiro[azetidine-3,1′-isobenzofuran]-1-yl)-2-(methylsulfonyl)ethan-1-one], the LC50 in test [1] was less than 20 µM. The EC50 in test [2] is less than 10 µM. The compound `CSCCNC(=O)c1ccc(C2=NOC(c3cc(C(F)(F)F)nn3C)(C(F)(F)F)C2)cc1C` (centres unmarked) [Compound 2-4, 2-methyl-4-[5-[1-methyl-3-(trifluoromethyl)-1H-pyrazol-5-yl]-5-(trifluoromethyl)-4,5-dihydro-1,2-oxazol-3-yl]-N-[2-(methylsulfanyl)ethyl]benzamide] registered an LC50 in test [1] of less than 20 µM. The EC50 in test [2] is less than 10 µM. The compound `Cc1cc(C2=NOC(c3cc(C(F)(F)F)nn3C)(C(F)(F)F)C2)ccc1C(=O)NCCS(C)(=O)=O` (centres unmarked) [Compound 2-5, N-(2-methanesulfonylethyl)-2-methyl-4-[5-[1-methyl-3-(trifluoromethyl)-1H-pyrazol-5-yl]-5-(trifluoromethyl)-4,5-dihydro-1,2-oxazol-3-yl]benzamide] displayed an LC50 in test [1] of less than 20 µM. Besides, in test [2], the EC50 was less than 10 µM. Take `Cc1cc(C2=NOC(c3cc(C(F)(F)F)nn3C)(C(F)(F)F)C2)ccc1C(=O)NCC(F)(F)F` (centres unmarked) [Compound 2-6, 2-methyl-4-[5-[1-methyl-3-(trifluoromethyl)-1H-pyrazol-5-yl]-5-(trifluoromethyl)-4,5-dihydro-1,2-oxazol-3-yl]-N-(2,2,2-trifluoroethyl)benzamide]: the LC50 in test [1] was less than 50 µM. The EC50 in test [2] was less than 10 µM.

As for `Cc1cc(C2=NOC(c3cc(C(F)(F)F)nn3C)(C(F)(F)F)C2)ccc1C(=O)NC1CC1` (centres unmarked) [Compound 2-7, N-cyclopropyl-2-methyl-4-[5-[1-methyl-3-(trifluoromethyl)-1H-pyrazol-5-yl]-5-(trifluoromethyl)-4,5-dihydro-1,2-oxazol-3-yl]benzamide], the LC50 in test [1] was less than 50 µM. In addition, the EC50 in test [2] was less than 10 µM.

Take `C=CCNC(=O)c1ccc(C2=NOC(c3cc(C(F)(F)F)nn3C)(C(F)(F)F)C2)cc1C` (centres unmarked) [Compound 2-8]: in test [2], the EC50 is less than 20 µM. Consider `Cn1nc(C(F)(F)F)cc1C1(C(F)(F)F)CC(c2ccc(C(=O)NCC(=O)NCC(F)(F)F)cc2)=NO1` (centres unmarked) [Compound 2-9, 2-[(4-[5-[1-Methyl-3-(trifluoromethyl)-1H-pyrazol-5-yl]-5-(trifluoromethyl)-4,5-dihydro-1,2-oxazol-3-yl]phenyl)formamido]-N-(2,2,2-trifluoroethyl) acetamide], for which the EC50 in test [2] was less than 20 µM. On the same count and under the same terms, in the case of `Cn1nc(C(F)(F)F)cc1C1(C(F)(F)F)CC(c2ccc(Cl)c(C(=O)NC3CC3)c2)=NO1` (centres unmarked) [Compound 2-10, 2-Chloro-N-cyclopropyl-5-[5-[1-methyl-3-(trifluoromethyl)-1H-pyrazol-5-yl]-5-(trifluoromethyl)-4,5-dihydro-1,2-oxazol-3-yl]benzamide] it was less than 20 µM; in that of `Cc1cc(C2=NOC(c3cn(C)nc3C(F)(F)F)(C(F)(F)F)C2)ccc1C(=O)NCC(=O)NCC(F)(F)F` (centres unmarked) [Compound 2-11, 2-[(2-methyl-4-[5-[1-methyl-3-(trifluoromethyl)-1H-pyrazol-4-yl]-5-(trifluoromethyl)-4,5-dihydro-1,2-oxazol-3-yl]phenyl)formamido]-N-(2,2,2-trifluoroethyl)acetamide], less than 20 µM. `COCn1nc(C(F)(F)F)cc1C1(C(F)(F)F)CC(c2ccc(C(=O)NCC(=O)NCC(F)(F)F)c(C)c2)=NO1` (centres unmarked) [Compound 2-30, 2-[(4-[5-[1-(methoxymethyl)-3-(trifluoromethyl)-1H-pyrazol-5-yl]-5-(trifluoromethyl)-4,5-dihydro-1,2-oxazol-3-yl]-2-methylphenyl)formamido]-N-(2,2,2-trifluoroethyl)acetamide]: the EC50 in test [2] is less than 10 µM. Take `COCn1nc(C2(C(F)(F)F)CC(c3ccc(C(=O)NCC(=O)NCC(F)(F)F)c(C)c3)=NO2)cc1C(F)(F)F` (centres unmarked) [Compound 2-31, 4-(5-(1-(methoxymethyl)-5-(trifluoromethyl)-1H-pyrazol-3-yl)-5-(trifluoromethyl)-4,5-dihydroisoxazol-3-yl)-2-methyl-N-(2-oxo-2-(2,2,2-trifluoroethylamino)ethyl)benzamide]: in test [2], the EC50 is less than 10 µM.
